Data on one molecule can be found in patent publication US20120136005A1, “E[…] THE TREATMENT OF ANXIETY” (MERZ PHARMA GmbH & CO. KGaA, priority 2009, published 2012).

Data set [1] has as its system Sprague-Dawley rats. Nature of the data set: Fear potentiated startle. It counts as in vivo. The conditions noted are these: acute treatment. How it is done:
(§1) For contextual fear conditioning, open field, fear potentiated startle and elevate plus maze, experimentally naive adult male Sprague-Dawley rats (250-300 g; Janvier, France) were housed in groups of four per cage. Colony room temperature and humidity were maintained respectively at 20±1° C. and 60±3%. Food and water were available ad libitum and the animals were kept under an alternating 12 h/12 h day-night cycle (lights on at 07.00) for at least 6 days before the experiments were started. All experiments were conducted during the light period of the day-night cycle. For the Vogel test, male experimentally naive Wistar rats (180-220 g, State Breeding Farm “Rappolovo”, St. Petersburg, Russia; N=109) were used. Each animal was used only once.
(§2) Eltoprazine hydrochloride was dissolved in sterile water. Administration of eltoprazine or vehicle (sterile water) was done s.c. (0.078 to 1.25 mg/kg) once, 60 minutes (30 min in the Vogel test) prior to start of the behavioural assay.

In data set [2] the test system is Wistar rats. Nature of the data set: Shock-suppressed drinking (Vogel) test. It counts as in vivo. Particulars: acute s.c., 30 min before the test; not statistically significant; FIG. 7. How it is done:
as §1, §2
The apparatus consisted of 4 identical standard operant chambers with grid metal floor. Water bottle spout was protruded through the wall and connected to a shock device. […] Latency to start drinking was registered, and total drinking time and the licks number were recorded during 5 min timed from the first lick of the bottle spout. […]

For data set [3], the system named is 5-HT1a receptor. The conditions noted are these: Schipper et al. 1990; cited from earlier work.
Data set [4] addresses 5-HT1b receptor (Rattus norvegicus, UniProt P28564). Particulars: Schipper et al. 1990; cited from earlier work.
Data set [5] has as its system Sprague-Dawley rats. Nature of the data set: Elevated plus maze. Particulars: doses of 0.3125 and 1.25 mg/kg s.c.; FIG. 6. It counts as in vivo. How it is done: For contextual fear conditioning, open field, fear potentiated startle and elevate plus maze, experimentally naive adult male Sprague-Dawley rats (250-300 g; Janvier, France) were housed in groups of four per cage. Colony room temperature and humidity were maintained respectively at 20±1° C. and 60±3%. Food and water were available ad libitum and the animals were kept under an alternating 12 h/12 h day-night cycle (lights on at 07.00) for at least 6 days before the experiments were started. All experiments were conducted during the light period of the day-night cycle. […]
The elevated plus maze, made from black polypropylene, consists of two open arms (50.8 cm×10.2 cm surrounded by 1.3 cm walls) and two enclosed arms (50.8×10.2 cm and 40.6 cm high walls), which extended form central platform (10.2×10.2 cm). […] Breaks of photo beam are recorded and analysed automatically using an IBM-PC running MED-PC software version IV (Med Associates). […] During the following 5 min period the number of entries into closed and open arms as well as time spent in each type of arm is recorded. An arm entry is recorded when all four paws entering the arm. The obtained results are expressed as mean±S.E.M. percent entries or percent time spent in open arms. […]
Percent of time spent in open arm are taken for statistical analysis. Data are analysed by one-way ANOVA followed by Dunnett's test.

The test system of data set [6] is Sprague-Dawley rats. Nature of the data set: Open field locomotor activity. It counts as in vivo. How it is done: as §1
(§3) Eltoprazine hydrochloride was dissolved in sterile water. […]
Locomotor activity was measured in four perspex boxes (ENV-515-16, 43.2 cm×43.2 cm×30 cm) placed in a noise-proof chamber equipped with ventilator and a source of white light (5.6 W) placed 55 cm above floor. […] 4 arrays of 16 infrared photo beams placed 3 cm above the floor measured horizontal activity. […] The output from the counters was integrated and analysed on-line by an PC computer. […]
Total distance travelled during the 60 min was taken for statistical analysis. Data are analysed by one-way ANOVA followed by Dunnett's test.

The subject of data set [7] is patients. The conditions noted are these: clinical trials, de Koning et al. 1994; cited from earlier work.
Data set [8] has as its system Sprague-Dawley rats. Nature of the data set: Contextual fear conditioning. It counts as in vivo. Particulars: acute s.c. 0.078 to 1.25 mg/kg, 60 min before the test; FIG. 4. How it is done:
as §1, §3
For training and testing, subjects were placed in test cages (30 cm wide, 29 cm high and 25 cm deep) equipped with a grid floor consisting of 18 stainless steel bars (3 mm ID). […] 24 h after conditioning, subjects are placed back in the test cages and freezing is recorded for a period of 5 min. […]
Percent of freezing during the 5 min expression test on day 2 is taken for statistical analysis. Data are analysed by one-way ANOVA on ranks followed by rank sum tests.

Entries after “also recorded” stand apart in the source; their conditions may differ.

5-HT1b receptor, sequence (P28564 whole entry): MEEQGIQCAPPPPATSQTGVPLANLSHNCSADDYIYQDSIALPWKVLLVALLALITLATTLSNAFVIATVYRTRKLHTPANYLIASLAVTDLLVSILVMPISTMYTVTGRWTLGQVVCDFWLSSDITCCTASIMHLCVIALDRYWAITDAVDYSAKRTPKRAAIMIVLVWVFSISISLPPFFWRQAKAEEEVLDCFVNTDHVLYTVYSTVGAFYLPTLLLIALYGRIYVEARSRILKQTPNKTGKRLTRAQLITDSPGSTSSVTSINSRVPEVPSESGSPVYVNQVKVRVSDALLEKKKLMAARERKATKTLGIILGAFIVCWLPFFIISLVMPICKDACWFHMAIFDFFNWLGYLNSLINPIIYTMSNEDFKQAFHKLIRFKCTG

In the case of `c1cc2c(c(N3CCNCC3)c1)OCCO2` [eltoprazine, 1-(2,3-dihydro-1,4-benzodioxin-5-yl)piperazine], the “effect in fear potentiated startle, first experiment” value in data set [1] was “anxiolytic-like effect”. The “effect in fear potentiated startle, repetition study” value in data set [1] (same doses) is “strong trend”. Also, in data set [2], the “number of accepted punishments (shocks received) in the Vogel test” value was “tendency to increase; also recorded: trend for anxiolytic activity”. Also, in data set [3], the “effect on 5-HT1a receptor” value is “agonistic effect”. In data set [4], the “effect on 5-HT1b receptor” value was “agonistic effect”. In addition, the “time spent in the open arms of the elevated plus maze” value in data set [5] was “reduced the time spent in the open arms; also recorded: anxiogenic-like effect”. The “total distance travelled in the open field” value in data set [6] (1.25 mg/kg s.c.) is “significantly increased”. The “locomotor activity in the open field at anxiolytic doses” value in data set [6] (acute s.c., 60 min before the test, FIG. 5) is given as “not related to non-specific increase in locomotor activation”. In addition, the clinical safety entry in data set [7] is “clinically safe”. Moreover, the “time spent freezing during re-exposure to the conditioning context” value in data set [8] is “dose-dependently induced anxiolytic-like effects; also recorded: very strong anxiolytic effect”.
